Laboratory results from ChEMBL document CHEMBL4706583, “2-Anilinoquinoline based arylamides as broad spectrum anticancer agents with B-RAF/C-RAF kinase inhibitory effects: Design, synthesis, in vitro cell-based and oncogenic kinase assessments” (Eur J Med Chem, 2020).

Tests used:
[1] = target: RAF proto-oncogene serine/threonine-protein kinase (Homo sapiens, UniProt P04049); assay: Inhibition of human CRAF at 10 uM using MEK1 (K97R) as substrate in presence of [gamma-33P]ATP by scintillation counting method relative to control
HCT-116 [2] = assay: Cell cycle arrest in human HCT-116 cells assessed as accumulation at G2/M phase at 2.5 uM measured after 48 hrs by propidium iodide staining based flow cytometry (reference value: 20.4%); assay type: functional
HCT-116 [3] = assay: Cell cycle arrest in human HCT-116 cells assessed as accumulation at S phase at 1.25 uM measured after 48 hrs by propidium iodide staining based flow cytometry (reference value: 10.4%); assay type: functional
[4] = target: High affinity nerve growth factor receptor (Homo sapiens, UniProt P04629); assay: Inhibition of human TRKA at 10 uM using poly[Glu:Tyr] (4:1) as substrate in presence of [gamma-33P]ATP by scintillation counting method relative to control
HCT-116 [5] = assay: Cell cycle arrest in human HCT-116 cells assessed as accumulation at S phase at 2.5 uM measured after 48 hrs by propidium iodide staining based flow cytometry (reference value: 10.4%); assay type: functional
HCT-116 [6] = assay: Cell cycle arrest in human HCT-116 cells assessed as accumulation at sub-G1 phase at 1.25 uM measured after 24 hrs by propidium iodide staining based flow cytometry (reference value: 8.7%); assay type: functional
HCT-116 [7] = assay: Cell cycle arrest in human HCT-116 cells assessed as accumulation at sub-G1 phase at 2.5 uM measured after 24 hrs by propidium iodide staining based flow cytometry (reference value: 8.7%); assay type: functional
HCT-116 [8] = assay: Cell cycle arrest in human HCT-116 cells assessed as accumulation at G2/M phase at 2.5 uM measured after 24 hrs by propidium iodide staining based flow cytometry (reference value: 19.2%); assay type: functional
HCT-116 [9] = assay: Cell cycle arrest in human HCT-116 cells assessed as accumulation at S phase at 5 uM measured after 24 hrs by propidium iodide staining based flow cytometry (reference value: 7.2%); assay type: functional
HCT-116 [10] = assay: Cell cycle arrest in human HCT-116 cells assessed as accumulation at S phase at 1.25 uM measured after 24 hrs by propidium iodide staining based flow cytometry (reference value: 7.2%); assay type: functional
HCT-116 [11] = assay: Cell cycle arrest in human HCT-116 cells assessed as accumulation at G1/G0 phase at 2.5 uM measured after 24 hrs by propidium iodide staining based flow cytometry (reference value: 65%); assay type: functional

Sequence of High affinity nerve growth factor receptor (P04629 33-796 limits assumed): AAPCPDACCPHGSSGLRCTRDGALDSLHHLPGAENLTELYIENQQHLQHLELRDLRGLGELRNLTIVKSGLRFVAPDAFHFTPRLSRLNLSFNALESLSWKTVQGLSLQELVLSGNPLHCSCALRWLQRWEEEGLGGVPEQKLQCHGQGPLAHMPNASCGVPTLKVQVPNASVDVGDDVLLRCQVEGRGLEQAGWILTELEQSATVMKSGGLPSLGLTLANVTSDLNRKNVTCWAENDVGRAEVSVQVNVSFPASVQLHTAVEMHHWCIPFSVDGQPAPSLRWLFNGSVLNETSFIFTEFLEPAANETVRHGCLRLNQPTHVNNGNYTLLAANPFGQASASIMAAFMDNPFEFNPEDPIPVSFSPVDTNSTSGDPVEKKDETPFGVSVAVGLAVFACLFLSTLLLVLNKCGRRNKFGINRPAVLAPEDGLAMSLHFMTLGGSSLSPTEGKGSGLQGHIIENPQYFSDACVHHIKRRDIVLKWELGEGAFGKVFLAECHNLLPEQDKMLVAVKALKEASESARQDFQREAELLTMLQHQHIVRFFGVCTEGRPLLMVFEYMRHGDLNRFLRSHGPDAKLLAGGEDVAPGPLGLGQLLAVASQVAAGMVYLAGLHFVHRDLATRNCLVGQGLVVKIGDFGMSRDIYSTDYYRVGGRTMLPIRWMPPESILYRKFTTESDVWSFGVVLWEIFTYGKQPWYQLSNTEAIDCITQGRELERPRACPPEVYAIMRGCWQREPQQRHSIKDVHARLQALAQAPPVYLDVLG
Sequence of RAF proto-oncogene serine/threonine-protein kinase (P04049 whole entry): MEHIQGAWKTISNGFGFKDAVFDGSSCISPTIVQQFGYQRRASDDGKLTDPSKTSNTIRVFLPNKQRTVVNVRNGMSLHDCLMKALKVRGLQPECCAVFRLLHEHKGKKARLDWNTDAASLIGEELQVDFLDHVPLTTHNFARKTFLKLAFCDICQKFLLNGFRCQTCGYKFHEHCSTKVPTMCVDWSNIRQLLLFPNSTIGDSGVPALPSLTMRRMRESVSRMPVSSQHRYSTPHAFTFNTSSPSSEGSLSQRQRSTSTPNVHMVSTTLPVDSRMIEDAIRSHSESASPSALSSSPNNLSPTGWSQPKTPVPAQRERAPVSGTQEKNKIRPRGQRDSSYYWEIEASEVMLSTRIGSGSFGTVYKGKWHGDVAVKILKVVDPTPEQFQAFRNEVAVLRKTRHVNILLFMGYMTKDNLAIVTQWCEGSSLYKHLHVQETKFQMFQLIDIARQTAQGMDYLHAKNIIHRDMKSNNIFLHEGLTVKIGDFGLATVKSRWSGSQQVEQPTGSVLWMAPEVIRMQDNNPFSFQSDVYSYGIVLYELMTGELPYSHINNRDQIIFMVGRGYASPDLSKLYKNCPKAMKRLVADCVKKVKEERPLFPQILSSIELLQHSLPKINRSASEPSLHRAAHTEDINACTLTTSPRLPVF

Row | Compound | inhibition [1] | Activity (HCT-116 [2]) | Activity (HCT-116 [3]) | inhibition [4] | Activity (HCT-116 [5]) | Activity (HCT-116 [6]) | Activity (HCT-116 [7]) | Activity (HCT-116 [8]) | Activity (HCT-116 [9]) | Activity (HCT-116 [10]) | Activity (HCT-116 [11])
1 | CCN1CCN(c2cc(C(=O)Nc3cccc(Nc4ccc5c(OC)cccc5n4)c3)cc(C(F)(F)F)c2)CC1 | 94.4% | 12.9% | 8.8% | 88% | 9.2% |  |  |  |  |  | 
2 | COc1cccc2nc(Nc3cccc(NC(=O)c4ccc(N5CCN(C)CC5)c(C(F)(F)F)c4)c3)ccc12 |  |  |  |  |  | 9.6% | 7.9% | 15.1% | 6.3% | 8.2% | 69.7%
